Reference: patent publication US12448375B2, “Kinase inhibitors for the treatment of neurodegenerative diseases” (Ohio State Innovation Foundation, priority 2019, dated 2025)
pIC50: −log10 of the molar value.

Legend:
Assay type in all cases: biochemical
JNK3 = target: T1, JNK3 (Homo sapiens, UniProt P53779); assay: HotSpot Kinase Assay (Reaction Biology Corp.), anti-JNK3 activity; details: HotSpot radiometric assay, 33P-ATP
T1 construct: purchased Reaction Biology Corp
In short: (§1)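 Radiometric HotSpot kinase assay in 20 mM HEPES pH 7.5 with 10 mM MgCl2, 1 mM EGTA, 0.02% Brij 35, 0.02 mg/mL BSA, 0.1 mM Na3VO4, 2 mM DTT and 1% DMSO. Cofactors were added per kinase, with the same format for all three kinases.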

JNK1 = target: T2, JNK1 (Homo sapiens, UniProt P45983); assay: HotSpot Kinase Assay, JNK1; details: HotSpot radiometric assay, 33P-ATP
T2 construct: purchased Reaction Biology Corp
In short: as §1

DDR1 = DDR1 (Homo sapiens, UniProt Q08345); assay: Enzymatic kinase assay, DDR1
DDR1, sequence (Q08345 19-913): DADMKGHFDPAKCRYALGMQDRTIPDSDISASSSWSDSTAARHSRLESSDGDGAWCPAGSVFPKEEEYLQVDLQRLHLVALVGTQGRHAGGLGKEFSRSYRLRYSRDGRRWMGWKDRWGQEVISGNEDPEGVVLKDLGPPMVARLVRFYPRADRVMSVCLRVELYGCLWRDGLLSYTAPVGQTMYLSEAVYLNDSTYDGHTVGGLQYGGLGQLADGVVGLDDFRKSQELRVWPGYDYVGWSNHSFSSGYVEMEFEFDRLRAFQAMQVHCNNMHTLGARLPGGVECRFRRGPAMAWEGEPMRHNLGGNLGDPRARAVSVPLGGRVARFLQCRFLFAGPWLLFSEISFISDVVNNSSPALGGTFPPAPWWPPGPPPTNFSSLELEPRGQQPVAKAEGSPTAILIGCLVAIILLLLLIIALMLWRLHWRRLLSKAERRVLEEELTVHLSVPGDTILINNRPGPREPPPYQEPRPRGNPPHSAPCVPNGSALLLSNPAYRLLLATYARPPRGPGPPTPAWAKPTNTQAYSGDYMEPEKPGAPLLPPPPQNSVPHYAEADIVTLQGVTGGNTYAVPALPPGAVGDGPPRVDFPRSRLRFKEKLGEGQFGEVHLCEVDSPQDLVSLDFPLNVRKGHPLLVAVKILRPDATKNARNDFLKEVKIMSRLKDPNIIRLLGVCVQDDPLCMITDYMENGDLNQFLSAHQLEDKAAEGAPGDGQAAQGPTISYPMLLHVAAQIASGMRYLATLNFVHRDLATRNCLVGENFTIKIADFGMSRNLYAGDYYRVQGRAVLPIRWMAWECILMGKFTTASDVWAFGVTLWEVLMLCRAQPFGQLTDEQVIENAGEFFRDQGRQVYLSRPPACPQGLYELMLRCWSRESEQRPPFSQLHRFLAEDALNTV
Protocol: [Worded in the source for another target; this target is reported under the same test.] (§2) The anti-JNK3 activity of compounds prepared as in the previous examples was evaluated using a Reaction Biology Corp. HotSpot Kinase Assay. Base reaction buffer was 20 mM HEPES (4-(2-hydroxyethyl)-1-piperazineethanesulfonic acid) at pH 7.5 with 10 mM MgCl2, 1 mM EGTA (ethylene glycol-bis(β-aminoethyl ether)-N,N,N′,N′-tetracetic acid), 0.02% Brij™ 35, 0.02 mg/mL BSA (bovine serum albumin), 0.1 mM Na3VO4, 2 mM DTT (dithiothreitol), and 1% DMSO. Required cofactors were added individually to each kinase reaction.
(§3) Kinase activity was evaluated as follows: • (1) Substrate was dissolved in freshly prepared reaction buffer • (2) Any required cofactors were dissolved in the substrate solution • (3) Kinase was added to the substrate solution followed by gentle mixing • (4) Compounds to be tested dissolved in 100% DMSO were added to the kinase reaction mixture using an Echo550 acoustic liquid handler (Labcyte, San Jose, CA) and incubated for 20 minutes at room temperature • (5) ^33P-ATP was added to the reaction mixture to initiate the kinase reaction • (6) The reaction mixture was incubated for 2 hours at room temperature • (7) Kinase activity was detected by spotting the kinase reaction on Whatman P81 paper, exposing and developing the images using a phosphorimager, and quantifying counts to determine kinase activity

Abl-1 = Abl-1 (Homo sapiens, UniProt P00519); assay: Enzymatic kinase assay, Abl-1
Abl-1, sequence (P00519 whole entry): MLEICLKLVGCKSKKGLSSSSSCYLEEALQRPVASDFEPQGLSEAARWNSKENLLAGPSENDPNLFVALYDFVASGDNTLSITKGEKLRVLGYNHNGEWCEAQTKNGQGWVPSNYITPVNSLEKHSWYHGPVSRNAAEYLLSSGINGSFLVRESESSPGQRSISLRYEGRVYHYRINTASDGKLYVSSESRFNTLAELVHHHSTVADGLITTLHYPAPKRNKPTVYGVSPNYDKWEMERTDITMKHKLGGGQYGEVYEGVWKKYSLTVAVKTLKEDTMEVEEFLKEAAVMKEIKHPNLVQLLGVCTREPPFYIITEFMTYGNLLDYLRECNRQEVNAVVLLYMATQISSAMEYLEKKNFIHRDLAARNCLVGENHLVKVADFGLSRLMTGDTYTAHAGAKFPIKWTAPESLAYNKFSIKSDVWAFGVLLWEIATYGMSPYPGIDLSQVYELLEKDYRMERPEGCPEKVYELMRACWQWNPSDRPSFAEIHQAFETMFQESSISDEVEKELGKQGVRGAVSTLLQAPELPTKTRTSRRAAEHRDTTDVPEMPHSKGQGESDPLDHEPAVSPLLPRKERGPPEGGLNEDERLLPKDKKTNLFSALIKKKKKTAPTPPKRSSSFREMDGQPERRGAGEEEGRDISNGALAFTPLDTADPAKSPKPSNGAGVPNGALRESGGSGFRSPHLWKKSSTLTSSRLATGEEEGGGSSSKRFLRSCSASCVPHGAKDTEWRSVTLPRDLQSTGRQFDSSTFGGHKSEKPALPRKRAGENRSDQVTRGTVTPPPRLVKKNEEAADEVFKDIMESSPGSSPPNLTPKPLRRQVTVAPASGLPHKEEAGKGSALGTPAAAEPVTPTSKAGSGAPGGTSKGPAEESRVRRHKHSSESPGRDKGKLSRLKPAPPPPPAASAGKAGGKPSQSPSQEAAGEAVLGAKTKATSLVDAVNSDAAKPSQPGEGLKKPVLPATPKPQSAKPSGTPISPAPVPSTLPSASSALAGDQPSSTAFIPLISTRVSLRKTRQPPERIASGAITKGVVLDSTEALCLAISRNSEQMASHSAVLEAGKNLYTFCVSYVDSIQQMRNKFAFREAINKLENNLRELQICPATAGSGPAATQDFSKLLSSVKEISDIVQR
Protocol: [Worded in the source for another target; this target is reported under the same test.] as §2, §3

TNIK = TNIK (Homo sapiens, UniProt Q9UKE5); assay: Enzymatic kinase assay, TNIK
Protocol: [Worded in the source for another target; this target is reported under the same test.] as §2, §3

MINK1 = MINK1 (Homo sapiens, UniProt Q8N4C8); assay: Enzymatic kinase assay, MINK1
MINK1, sequence (Q8N4C8 whole entry): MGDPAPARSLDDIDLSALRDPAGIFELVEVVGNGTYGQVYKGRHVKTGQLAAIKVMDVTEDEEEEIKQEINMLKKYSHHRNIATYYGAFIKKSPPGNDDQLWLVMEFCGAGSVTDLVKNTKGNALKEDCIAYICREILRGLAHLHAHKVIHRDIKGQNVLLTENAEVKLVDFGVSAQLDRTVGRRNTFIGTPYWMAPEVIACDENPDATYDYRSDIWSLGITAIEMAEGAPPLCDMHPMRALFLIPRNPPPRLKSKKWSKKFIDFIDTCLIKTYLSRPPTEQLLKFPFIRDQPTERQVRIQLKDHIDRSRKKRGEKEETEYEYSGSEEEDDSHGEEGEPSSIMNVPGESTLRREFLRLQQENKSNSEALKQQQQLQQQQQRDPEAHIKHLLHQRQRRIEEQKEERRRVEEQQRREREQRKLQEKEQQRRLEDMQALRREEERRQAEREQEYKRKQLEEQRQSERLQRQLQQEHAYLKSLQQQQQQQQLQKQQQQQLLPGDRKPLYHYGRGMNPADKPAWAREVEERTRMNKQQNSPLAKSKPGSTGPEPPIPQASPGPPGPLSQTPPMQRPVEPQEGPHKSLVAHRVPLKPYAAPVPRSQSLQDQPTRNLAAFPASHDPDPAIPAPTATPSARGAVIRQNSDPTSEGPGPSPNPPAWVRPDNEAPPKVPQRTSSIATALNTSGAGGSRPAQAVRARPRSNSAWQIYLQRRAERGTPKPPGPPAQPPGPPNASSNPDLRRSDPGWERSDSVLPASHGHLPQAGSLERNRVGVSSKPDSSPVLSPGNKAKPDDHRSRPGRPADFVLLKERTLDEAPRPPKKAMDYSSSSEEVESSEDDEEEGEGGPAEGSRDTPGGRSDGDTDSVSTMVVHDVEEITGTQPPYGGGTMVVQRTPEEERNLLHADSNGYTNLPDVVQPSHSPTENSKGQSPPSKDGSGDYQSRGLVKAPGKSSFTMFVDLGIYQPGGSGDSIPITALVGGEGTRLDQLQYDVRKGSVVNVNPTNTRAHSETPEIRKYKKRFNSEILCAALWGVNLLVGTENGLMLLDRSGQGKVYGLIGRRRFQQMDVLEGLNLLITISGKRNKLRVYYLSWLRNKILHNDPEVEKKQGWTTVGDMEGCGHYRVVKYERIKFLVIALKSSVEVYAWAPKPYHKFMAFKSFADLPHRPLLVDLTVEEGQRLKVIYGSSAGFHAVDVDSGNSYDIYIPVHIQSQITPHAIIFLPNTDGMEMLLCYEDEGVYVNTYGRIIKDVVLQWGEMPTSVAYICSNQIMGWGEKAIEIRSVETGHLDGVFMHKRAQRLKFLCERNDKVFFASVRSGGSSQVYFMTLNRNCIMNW

p38a = target: T3, p38a (Homo sapiens, UniProt Q16539); assay: HotSpot Kinase Assay, P38a; details: HotSpot radiometric assay, 33P-ATP
T3 construct: purchased Reaction Biology Corp
In short: as §1

HGK = HGK (Homo sapiens, UniProt O95819); assay: Enzymatic kinase assay, HGK
HGK, sequence (O95819 whole entry): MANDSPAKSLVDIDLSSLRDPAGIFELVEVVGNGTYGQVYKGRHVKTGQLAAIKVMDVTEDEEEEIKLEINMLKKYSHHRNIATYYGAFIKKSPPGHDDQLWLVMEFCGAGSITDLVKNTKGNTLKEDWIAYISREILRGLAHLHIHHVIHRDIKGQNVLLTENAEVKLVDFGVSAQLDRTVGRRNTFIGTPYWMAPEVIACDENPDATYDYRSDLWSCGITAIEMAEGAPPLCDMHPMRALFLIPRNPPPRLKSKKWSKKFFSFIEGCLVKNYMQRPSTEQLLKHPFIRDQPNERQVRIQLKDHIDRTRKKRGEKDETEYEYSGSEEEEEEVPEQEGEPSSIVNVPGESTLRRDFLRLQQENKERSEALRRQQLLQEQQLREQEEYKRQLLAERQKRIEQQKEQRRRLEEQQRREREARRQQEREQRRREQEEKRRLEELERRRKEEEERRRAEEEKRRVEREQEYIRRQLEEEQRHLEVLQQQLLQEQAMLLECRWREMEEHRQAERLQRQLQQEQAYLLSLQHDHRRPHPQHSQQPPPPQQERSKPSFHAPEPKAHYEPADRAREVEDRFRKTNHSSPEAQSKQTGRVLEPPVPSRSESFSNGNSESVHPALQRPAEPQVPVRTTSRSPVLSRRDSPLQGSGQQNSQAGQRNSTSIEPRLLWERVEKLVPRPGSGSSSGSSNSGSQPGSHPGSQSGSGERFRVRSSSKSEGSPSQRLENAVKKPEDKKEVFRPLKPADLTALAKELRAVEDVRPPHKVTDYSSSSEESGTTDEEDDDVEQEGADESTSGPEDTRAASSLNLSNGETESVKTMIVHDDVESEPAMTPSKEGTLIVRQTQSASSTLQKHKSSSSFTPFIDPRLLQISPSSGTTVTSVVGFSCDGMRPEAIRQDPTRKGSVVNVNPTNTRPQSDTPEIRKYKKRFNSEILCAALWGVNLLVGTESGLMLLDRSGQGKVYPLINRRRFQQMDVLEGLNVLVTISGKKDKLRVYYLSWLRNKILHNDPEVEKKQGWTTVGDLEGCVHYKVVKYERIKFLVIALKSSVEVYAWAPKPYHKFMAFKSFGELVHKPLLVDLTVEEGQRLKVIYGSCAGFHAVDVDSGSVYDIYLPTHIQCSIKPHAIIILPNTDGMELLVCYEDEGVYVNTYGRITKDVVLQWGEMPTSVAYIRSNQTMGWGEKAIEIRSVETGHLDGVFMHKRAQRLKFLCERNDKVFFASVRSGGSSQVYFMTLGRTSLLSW
Protocol: [Worded in the source for another target; this target is reported under the same test.] as §2, §3

T1 sequence (P53779 whole entry): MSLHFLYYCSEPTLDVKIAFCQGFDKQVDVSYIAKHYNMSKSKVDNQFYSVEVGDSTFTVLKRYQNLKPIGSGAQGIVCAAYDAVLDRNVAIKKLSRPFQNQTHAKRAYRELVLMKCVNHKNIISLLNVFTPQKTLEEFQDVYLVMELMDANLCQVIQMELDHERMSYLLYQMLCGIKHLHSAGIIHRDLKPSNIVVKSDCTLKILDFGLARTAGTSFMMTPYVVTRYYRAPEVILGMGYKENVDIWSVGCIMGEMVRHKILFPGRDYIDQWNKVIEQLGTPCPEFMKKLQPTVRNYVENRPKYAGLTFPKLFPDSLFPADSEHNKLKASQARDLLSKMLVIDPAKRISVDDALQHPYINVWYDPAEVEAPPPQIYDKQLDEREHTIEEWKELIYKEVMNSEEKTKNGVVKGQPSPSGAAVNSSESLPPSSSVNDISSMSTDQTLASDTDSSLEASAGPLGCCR

| pIC50 (JNK3) | pIC50 (JNK1) | pIC50 (DDR1) | pIC50 (Abl-1) | pIC50 (TNIK) | pIC50 (MINK1) | pIC50 (p38a) | pIC50 (HGK) | SMILES |
| --- | --- | --- | --- | --- | --- | --- | --- | --- |
| > 6.70 | < 6.00 | > 6.70 | 6.00 to 6.70 | > 6.70 | 6.00 to 6.70 | 6.00 to 6.70 | > 6.70 | CNC(=O)c1cc(-n2ncc3cc(Nc4c(F)cccc4Cl)c(OC)cc32)cs1 [Compound 91, 4-(5-((2-chloro-6-fluorophenyl)amino)-6-methoxy-1H-indazol-1-yl)-N-methylthiophene-2-carboxamide] |
| > 6.70 | < 6.00 | > 6.70 | < 6.00 | > 6.70 | > 6.70 | < 6.00 | > 6.70 | CN1CCN=C1NC(=O)c1cc(-n2ncc3nc(Nc4ccccc4Cl)ccc32)cs1 [Compound 58, 4-(5-((2-chlorophenyl)amino)-1H-pyrazolo[4,3-b]pyridin-1-yl)-N-(1-methyl-4,5-dihydro-1H-imidazol-2-yl)thiophene-2-carboxamide] |
| > 6.70 | < 6.00 | < 6.00 | < 6.00 | 6.00 to 6.70 | < 6.00 | 6.00 to 6.70 | < 6.00 | COc1cccc(Cl)c1Nc1cc2cnn(-c3csc(C(=O)NC4COC4)c3)c2nc1C [Compound 110, 4-(5-((2-chloro-6-methoxyphenyl)amino)-6-methyl-1H-pyrazolo[3,4-b]pyridin-1-yl)-N-(oxetan-3-yl)thiophene-2-carboxamide] |
| > 6.70 | 6.00 to 6.70 | – | – | > 6.70 | > 6.70 | 6.00 to 6.70 | > 6.70 | CNC(=O)c1cc(-n2ncc3cc(Nc4cccc(C)c4Cl)ncc32)cs1 [Compound 25, 4-(5-((2-chloro-3-methylphenyl)amino)-1H-pyrazolo[3,4-c]pyridin-1-yl)-N-methylthiophene-2-carboxamide] |
| > 6.70 | < 6.00 | 6.00 to 6.70 | < 6.00 | > 6.70 | > 6.70 | 6.00 to 6.70 | > 6.70 | CNC(=O)c1cc(-n2ncc3cc(Nc4c(Cl)cccc4OC)ncc32)cs1 [Compound 108, 4-(5-((2-chloro-6-methoxyphenyl)amino)-1H-pyrazolo[3,4-c]pyridin-1-yl)-N-methylthiophene-2-carboxamide] |
| > 6.70 | < 6.00 | 6.00 to 6.70 | – | – | – | 6.00 to 6.70 | – | CNC(=O)c1cc(-n2ncc3cc(Nc4c(F)cccc4OC)ccc32)cs1 [Compound 93, 4-(5-((2-fluoro-6-methoxyphenyl)amino)-1H-indazol-1-yl)-N-methylthiophene-2-carboxamide] |
